Here are results for six molecules from patent publication US20240228987A1, “HEXOKINASE-DERIVED PEPTIDES AND THERAPEUTICAL USES THEREOF” (INSERM (INSTITUT NATIONAL DE LA SANTÉ ET DE LA RECHERCHE …, priority 2021, published 2024).

Where a SMILES comes first, the peptide text is derived from it. [ ]: non-standard residue; d: D form. Nle = CCCC[C@H](N)C(=O)O

The target in data set [1] is T1, VDAC (Homo sapiens, UniProt P21796).
T1 construct: HEK-293 cells, expressing VDAC and HK; endogenous in cells; host or cells: HEK-293 (ATCC), transfected only with the Ca2+ probes mitoGCaMP2 / GCaMP2
Kind of data set: time-lapse recording of mitochondrial calcium probe mito-GCaMP2 in HEK293 cells treated with MJ and HK1 N-terminal peptides (FIG. 3). Type of data set: cell-based. The following applies: peptides at 5 microMolar, MJ 6 mM. On the procedure: FIG. 3: Time-lapse recording of fluorescence intensity of the mitochondrial calcium probe in HEK293 cells treated with Methyl Jasmonate (MJ, 6 milliMolar) and Nterminal peptide of wt HK1 (HK1-Nt peptide) or Nterminal peptide of mutated HK1 (HKmut-Nt peptide). HEK 293 cells were transfected with a plasmid expressing mito-GCaMP2. 48 hours later cells were imaged using a Zeiss Axio-observer designed for live-imaging and treated with MJ (6 mM) and/or peptides at 5 microMolar. Peptide sequences: wt HK1 peptide Ac-[…]-NH2 (SEQ ID NO:90), CMT4G-mutated HK1 peptide Ac-[…]-NH2 (SEQ ID NO:91) and Control peptide Ac-[…]-NH2 (SEQ ID NO:92).

In data set [2] the target is T1, VDAC. Description: in-cellulo screening assay: HEK-293 cells transfected with mitoGCaMP2, MJ-induced mitochondrial Ca2+ release through VDAC. In kind it is cell-based.
Experimental: The activity of the designed compounds was assessed on HEK-293 cells transfected with mitoGCaMP2. 40,000 cells per well were seeded in 96-well-microplates coated with Poly-D-Lysine (reference 655946, Greiner Bio-One, France) in 200 μl of DMEM supplemented with 10% FBS and 1% PS. 24 h after seeding, cells were transfected with 50 ng of mitoGCaMP2 plasmid per well using jet-PRIME reagent (Polyplus-transfection S.A, France) according to the manufacturer's recommendations. 48 h after transfection, a first measure of fluorescence was performed using the microplate reader CLARIOstar® (BMG Labtech, France). This measurement represented the basal level of Ca2+ into the mitochondria upon transfection. After a wash with 100 μl of PBS, cells were incubated with a mixture of pre-heated (37° C.) MJ at a final concentration of 6 mM and compounds at the indicated final concentrations in PBS containing 0.1% DMSO and 5% EtOH. After 35 min in a cell incubator, a second measure of fluorescence was performed using the microplate reader CLARIOstar®. This measure represented the level of mitochondrial Ca2+ according to the peptide activity. Compounds were tested in triplicates per microplates and in three or five independent experiments for each peptide. For dose effect curves, compounds were tested in triplicates per microplates and in three independent experiments. Results are expressed as the ratio between the second and first measures and normalized to the conditions without compounds containing only PBS with 0.1% DMSO and 5% EtOH. Results are expressed as the means±SD in histogram plots and dose response curves using GraphPad Prism software (version 8.0.1).
The biological screening of the peptide is based on the ability of methyl jasmonate (MJ) to binds and detaches HK-1 from mitochondrial VDAC in a time and dose dependent manner.^16,20 For this purpose, we developed an in-cellulo screening assay in which HEK-293 cells, expressing VDAC and HK,25 were transfected with GCaMP2, a cytoplasmic Ca2+-sensing probe, or with mitoGCaMP2, the same probe addressed to mitochondrial matrix. […] MJ that removes HK from VDAC was used to induce a Ca2+ release outside mitochondria measured through a drop in mitoGCaMP2 fluorescence and an increase in GCaMP2 fluorescence in cells.
Data set [3] has as its target T1, VDAC. Kind of data set: live imaging of HEK-293 cells transfected with mitoGCaMP2 or GCaMP2, MJ treatment. The note with it: peptide at 33 μM, MJ 6 mM, 30 min. Type of data set: cell-based. On the procedure:
(§1) FIG. 5. Time-lapse quantification of mitoGCaMP2 (A) and GCaMP2 (B) fluorescence levels within mitochondria and within the cytosol respectively. Quantifications of fluorescence levels of HEK-293 cells transfected with mitoGCaMP2 (A) and GCaMP2 (B) probes. Control (circle) represents the fluorescence level in mitochondria when treating the cells with the diluents 0.1 DMSO and 5% EtOH used for MJ and compound solubilization. MJ was tested at 6 mM and compound 1a at 33 μM. Statistical analysis using two-way ANOVA followed by Tukeys's multiple comparison tests (N=3 independent experiments). Results are expressed as means±SEM. **p<0.01, ****p<0.0001, ns. non significant. A. U. arbitrary unit
(§2) Live imaging experiments were performed on HEK-293 cells transfected with either the mitoGCaMP2 or the GCaMP2 plasmids. 500,000 cells per well were seeded in 6-well microplate (NUNC, reference 153066, Thermo Fisher Scientific, France) in 1 ml of DMEM supplemented with 10% FBS and 1% PS. 48 h after seeding, cells were transfected with 2 μg of mitoGCaMP2 or GCaMP2 plasmids using jet-PRIME reagent according to the manufacturer's protocol. 48h after transfection, the microplates were placed under a videomicroscope equipped with a humidified chamber at 37° C. and with 5% CO2. Next, 6 mM of pre-heated MJ (37° C.) was added to the wells with or without the peptide 1a at 33 μM in 1 ml of DMEM without red phenol supplemented with 10% FBS and 1% PS, and containing 0.1% DMSO and 5% EtOH. In parallel, wells containing only 1 ml of DMEM without red phenol and with 10% FBS, 1% PS, 0.1% DMSO and 5% EtOH served as control condition. Live imaging acquisition was triggered when adding MJ with or without the peptide 1a. For the control condition, image acquisition was triggered after addition of 1 ml of DMEM without red phenol supplemented with 10% FBS and 1% PS, containing 0.1% DMSO and 5% EtOH. […] Overall, 5 ROIs per condition were analyzed using Zen software (Zen 2.3 lite, Zeiss, France) and ImageJ software (version 1.52o, NIH, USA). Results are expressed as the mean±SEM using GraphPad Prism software (version 8.0.1). […]

The subject of data set [4] is HEK293 cells. Description: Rhod-2 mitochondrial calcium imaging in HEK293 cells, methyl jasmonate (Example 2). Type of data set: cell-based. The following applies: methyl jasmonate 6 mM, 40 minutes; 5z peptide 5 μM or AAV9 infection. Here is the method:
FIG. 12: AAV9 represents an efficient way to sustain anti-demyelinating peptide expression in target cells. HEK293 cells were infected with a control AAV9 or AAV9-HK peptide or not infected. Two days later cells were incubated with a fluorescent dye Rhod-2 that fluoresces with calcium in mitochondria. 15 minutes later infected cells were incubated with methyl jasmonate (6 mM) and non-infected cells were incubated with methyl jasmonate (6 mM)+5z peptide (5 μM) for 40 minutes. Pictures were taken every 5 minutes imaging Rhod-2 dye.
We produced an AAV9 virus expressing HK peptide 5z (AAV9-HK peptide). HEK293 cells were infected with a control AAV9 or AAV9-HK peptide or not infected. Two days later cells were incubated with a fluorescent dye Rhod-2 that fluoresces with calcium in mitochondria. 15 minutes later infected cells were incubated with methyl jasmonate (6 mM) and non-infected cells were incubated with methyl jasmonate (6 mM)+5z peptide (5 μM) for 40 minutes. Pictures were taken every 5 minutes imaging Rhod-2 dye.

The conditions of data set [5]: cited from earlier work.
Data set [6] has as its system Schwann cells. The following applies: cited from earlier work.
For data set [7], the system named is VDAC. Description: live imaging of HEK-293 cells transfected with mitoGCaMP2 or GCaMP2, MJ treatment. The note with it: MJ 6 mM. Type of data set: cell-based. On the procedure: as §1, §2

T1 sequence (P21796 2-283): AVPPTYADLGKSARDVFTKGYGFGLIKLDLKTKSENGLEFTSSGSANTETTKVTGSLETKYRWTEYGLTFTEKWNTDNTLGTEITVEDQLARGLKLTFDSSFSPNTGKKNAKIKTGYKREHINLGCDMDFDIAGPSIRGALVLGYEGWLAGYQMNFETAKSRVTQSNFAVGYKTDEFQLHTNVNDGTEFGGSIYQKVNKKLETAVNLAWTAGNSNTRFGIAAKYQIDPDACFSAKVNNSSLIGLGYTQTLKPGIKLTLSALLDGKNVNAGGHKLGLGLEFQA

For the molecule Ac-MIAAQLLAYYFTELKGRKKRRQRRRPPQ-NH2, in data set [1], the “mitochondrial calcium release following MJ treatment” value was “able to prevent mitochondrial calcium release”. Take `CCCC[C@H](NC(C)=O)C(=O)N[C@H](C(=O)N[C@@H](C)C(=O)N[C@@H](C)C(=O)N[C@@H](CCC(N)=O)C(=O)N[C@@H](CC(C)C)C(=O)N[C@@H](CC(C)C)C(=O)N[C@@H](C)C(=O)N[C@@H](Cc1ccc(O)cc1)C(=O)N[C@@H](Cc1ccc(O)cc1)C(=O)N[C@@H](Cc1ccccc1)C(=O)N[C@H](C(=O)N[C@@H](CCC(=O)O)C(=O)N[C@@H](CC(C)C)C(=O)N[C@@H](CCCCN)C(=O)NCC(=O)N[C@@H](CCCNC(=N)N)C(=O)N[C@@H](CCCCN)C(=O)N[C@@H](CCCCN)C(=O)N[C@@H](CCCNC(=N)N)C(=O)N[C@@H](CCCNC(=N)N)C(=O)N[C@@H](CCC(N)=O)C(=O)N[C@@H](CCCNC(=N)N)C(=O)N[C@@H](CCCNC(=N)N)C(=O)N[C@@H](CCCNC(=N)N)C(=O)N1CCC[C@H]1C(=O)N1CCC[C@H]1C(=O)N[C@@H](CCC(N)=O)C(N)=O)[C@@H](C)O)[C@@H](C)CC` [1a] (Ac-[Nle]IAAQLLAYYFTELKGRKKRRQRRRPPQ-NH2): the IC50 in data set [2] (HEK-293 mitoGCaMP2, MJ 6 mM, 35 min, dose response, read-out: IC50 on mitochondrial Ca2+ release through VDAC) turned out to be 15.6 ± 2 µM. Besides, in data set [3], the “fluorescence change induced by MJ treatment (mitoGCaMP2 and GCaMP2)” value is reported as “blocked”. Turning to “Ac-MGQICQRESATAAEKGRKKRRQRRRPPQ-NH2 [peptide derived from the mutant HK1]”, the “mitochondrial calcium release following MJ treatment” value in data set [1] is “no effect”. Consider “AQWWAYYYTEWK [5z, tested peptide also contains Tat]”, for which the “activity / affinity for VDAC on the screening assay (mitoGCaMP2 fluorescence)” value in data set [2] (compounds at 3 μM, MJ 6 mM, compared with 3c, 4d or 5x) is given as “more significant”. For the same molecule, the “Rhod-2 fluorescence in mitochondria” value in data set [4] is given as “no decrease occurred”. On to GRKKRRQRRRPQ [Tat], for which the half-life in serum entry in data set [5] is on record as “less than 6 min”. In the case of `CC/C=C\CC1C(=O)CCC1CC(=O)OC` (centres unmarked) [MJ, Methyl jasmonate], in data set [6], the demyelination result is reported as “spontaneous demyelination”. The “Rhod-2 fluorescence in mitochondria” value in data set [4] is “decrease”. The “mitoGCaMP2 fluorescence (mitochondrial Ca2+)” value in data set [7] (at least 30 min) is “significant decrease”. Moreover, in data set [7] (same timeframe), the “GCaMP2 fluorescence (cytoplasmic Ca2+)” value is listed as “increased significantly”.

Usually IC50 stands for the point on the concentration scale where inhibition reaches its midpoint.
